Data set [1] can be described thus: Preparation stability of crystal forms (mixing and slurrying, X-RPD). In kind it is physicochemical. The settings on record: for Converted crystal form: 0.1 g mixed with 0.1 g crystal form A of Example 2, slurried in acetone/water at room temperature for 10 h. On the procedure: The mixing and slurring method was as follows: 0.1 g of each of the two crystal forms to be mixed was weighed and added into a single-necked flask. 2 mL of acetone and 1 mL of water were added. The mixture was stirred and slurried at room temperature for 10 h, filtered, and dried in air at room temperature to obtain crystals. The crystal forms were determined by X-RPD.

Data set [2] in a line: Crystal microscopic morphology by scanning electron microscope. The data set is classed as physicochemical. The source says: The experimental method was as follows: an appropriate amount of test sample was taken, uniformly spread on a conductive adhesive tape, sprayed with gold, and observed under an electron microscope.
(§1) The determination results are as follows.

Data set [3] can be described thus: Crushing, static electricity and fluidity test. The conditions noted are these: for Static electricity: reference forms: after crushing. In kind it is physicochemical.
Excerpt: as §1

Data set [4] in a line: Chemical stability test (affecting factors, HPLC purity). The conditions noted are these: for Chemical stability (in words): after a 10-day affecting factor test. The data set is classed as physicochemical. From the text: For the specific method for testing the stability, reference could be made to high performance liquid chromatography in General Chapter 0512, Chinese Pharmacopoeia, Volume IV, 2015 Edition.

Data set [5] can be described thus: Crystal form stability test (affecting factors). The conditions noted are these: for Crystal form stability (in words): after a 10-day affecting factor test. In kind it is physicochemical. The method, then: The experimental method was as follows: a ground sample (100 mg) was filled in a groove of a glass plate, the plane of the sample was made to the same level as the glass surface by using a glass slide, the sample was placed in a PANalytical X-ray powder diffractometer, and a 40 kV and 40 mA copper X-ray source was used, with a scanning range of 3-45° (2θ) and a scanning rate of 8°/min. The scanning error is typically ±0.2 degrees (2θ).

A short description of data set [6]: Solubility comparison of crystals. In kind it is physicochemical. The settings on record: for Solubility in 95% ethanol / Solubility in aqueous solution with pH = 1 / solubility at 20 min: 25° C., dissolution time 20 min; for Solubility compared with crystal form 2 and crystal form 4: 95% ethanol and aqueous solution with pH=1; for solubility at 20 min: thermodynamic from solid. On the procedure: • Dissolution temperature: 25° C. • Dissolution time: 20 min

For data set [7] the following is noted: background statement; cited from earlier work.
Setting [8] is: High humidity condition 90% RH, 10 days.
Setting [9] is: High temperature condition 60° C., 10 days.
The mark [10] stands for this setting: Light condition 5000 lux/h, 10 days.

Values after ≈ are worked out from the molar mass of the structure shown. Like-named read-outs stand apart in the source and are kept apart here.

Regarding `CN1CCN(c2ccc(C(=O)Nc3n[nH]c4ccc(Cc5cc(F)cc(F)c5)cc34)c(NC3CCOCC3)c2)CC1` [Crystal form AZT-A of Reference Example 4] [entrectinib], the Converted crystal form entry in data set [1] was “Crystal form A”. Also, in data set [2], the “electron microscopy results of the crystal: length of larger crystals/particles” value is on record as “about 700 μm”; the “electron microscopy results of the crystal: shape and size uniformity” value is given as “Irregular bulk-shaped, non-uniform”. For the same molecule, in data set [3], the Fluidity entry is reported as “poor fluidity” and the Static electricity result is “strong static electricity after crushing, and”. Besides, in data set [3] (listed as crystal form AZT-A), the Fluidity entry was “poor fluidity” and the Static electricity result was “relatively strong static electricity after being crushed”.
For `CN1CCN(c2ccc(C(=O)Nc3n[nH]c4ccc(Cc5cc(F)cc(F)c5)cc34)c(NC3CCOCC3)c2)CC1` [Crystal form 2 of Reference Example 2, entrectinib], the “Purity (%)” value in data set [4] (0 day) was determined as 99.34%; in data set [4] (setting [8]), 99.33%; in data set [4] (setting [9]) it was 99.34%; in data set [4] (setting [10]), 99.33%. Further, the Crystal form found entry in data set [5] (0 day), in data set [5] (setting [8]), in data set [5] (setting [9]) and in data set [5] (setting [10]) was “form 2” each time. Also, the “Solubility in 95% ethanol” value in data set [6] came to 21.1 mg/mL (≈ 37.6 mM). In addition, the “Solubility in aqueous solution with pH = 1” value (“Solubility … with pH = 1” for short) in data set [6] is reported as 19.1 mg/mL. In data set [1], the Converted crystal form entry is “Crystal form A”. Besides, the “electron microscopy results of the crystal: length of larger crystals/particles” value in data set [2] was “about 85 μm”. Besides, the “electron microscopy results of the crystal: shape and size uniformity” value in data set [2] is recorded as “Sheet-shaped, fragile, non-uniform”. Besides, the Fluidity result in data set [3] is “crushing, and poor fluidity”; in data set [3] (listed as crystal form 2), “poor fluidity”. The Static electricity result in data set [3] is “relatively strong static electricity after”; in data set [3] (listed as crystal form 2), “relatively strong static electricity after being crushed”. Besides, in data set [7], the “Solubility (in words)” value is given as “poor solubility”.
Turning to `CN1CCN(c2ccc(C(=O)Nc3n[nH]c4ccc(Cc5cc(F)cc(F)c5)cc34)c(NC3CCOCC3)c2)CC1` [Crystal form B of Example 5, N-[5-(3,5-difluorobenzyl)-1H-indazol-3-yl]-4-(4-methylpiperazin-1-yl)-2-[(tetrahydro-2H-pyran-4-yl)amino]benzamide], the “Purity (%)” value in data set [4] (0 day) is reported as 99.91%; in data set [4] (setting [8]), 99.90%; in data set [4] (setting [9]), 99.91%; in data set [4] (setting [10]), 99.91%. For the same molecule, the “Chemical stability (in words)” value in data set [4] was “good chemical stability”. Besides, the Crystal form found entry in data set [5] (0 day), in data set [5] (setting [8]), in data set [5] (setting [9]) and in data set [5] (setting [10]) was “form B” each time. Also, the “Crystal form stability (in words)” value in data set [5] was “good crystal form stability”. In data set [6], the “Solubility in 95% ethanol” value was 26.2 mg/mL (≈ 46.7 mM). Further, the “Solubility … with pH = 1” value in data set [6] is listed as 21.0 mg/mL. Moreover, the “Solubility compared with crystal form 2 and crystal form 4” value in data set [6] is on record as “better solubility”. For the same molecule, in data set [2], the “electron microscopy results of the crystal: length of larger crystals/particles” value is approximately 10 μm. For the same molecule, the “electron microscopy results of the crystal: shape and size uniformity” value in data set [2] is “Rod-shaped, relatively uniform size,”. In addition, the Fluidity entry in data set [3] and in data set [3] (listed as crystal form B) was “good fluidity” each time.
Take `CN1CCN(c2ccc(C(=O)Nc3n[nH]c4ccc(Cc5cc(F)cc(F)c5)cc34)c(NC3CCOCC3)c2)CC1` [Crystal form 1 of Reference Example 1, entrectinib]: the “Purity (%)” value in data set [4] (0 day) is 99.21%; in data set [4] (setting [8]), 99.20%; in data set [4] (setting [9]), 99.20%; in data set [4] (setting [10]), 99.19%. The Crystal form found entry is “form 1” in data set [5] (0 day), “form 1” in data set [5] (setting [8]), “form 2” in data set [5] (setting [9]) and “form 1” in data set [5] (setting [10]). In addition, the “Crystal form stability (in words)” value in data set [5] (listed as crystal form 1 in Reference Example 1) was “unstable and shows crystal form conversion under a high temperature condition”; in data set [7], “unstable and is easy to be converted into another crystal form”.
With `CN1CCN(c2ccc(C(=O)Nc3n[nH]c4ccc(Cc5cc(F)cc(F)c5)cc34)c(NC3CCOCC3)c2)CC1` [Crystal form AZT-B of Reference Example 5] [entrectinib], the Converted crystal form result in data set [1] is on record as “Crystal form A”. In addition, in data set [2], the “electron microscopy results of the crystal: length of larger crystals/particles” value is listed as “more than about 1000 μm”; the “electron microscopy results of the crystal: shape and size uniformity” value is “Irregular bulk-shaped, non-uniform”. Also, in data set [3], the Fluidity entry is “poor fluidity” and the Static electricity result is recorded as “strong static electricity after crushing, and”. Moreover, in data set [3] (listed as crystal form AZT-B), the Fluidity entry was “poor fluidity” and the Static electricity result was “relatively strong static electricity after being crushed”.
With `CN1CCN(c2ccc(C(=O)Nc3n[nH]c4ccc(Cc5cc(F)cc(F)c5)cc34)c(NC3CCOCC3)c2)CC1` [Crystal form 4 of Reference Example 3, entrectinib], the “Purity (%)” value in data set [4] (0 day) is on record as 99.29%; in data set [4] (setting [8]), 99.29%; in data set [4] (setting [9]) it was 99.28%; in data set [4] (setting [10]), 99.28%. Also, the Crystal form found result in data set [5] (0 day), in data set [5] (setting [8]), in data set [5] (setting [9]) and in data set [5] (setting [10]) was “form 4” in each case. The “Solubility in 95% ethanol” value in data set [6] was determined as 20.5 mg/mL (≈ 36.6 mM). In addition, the “Solubility … with pH = 1” value in data set [6] amounted to 18.8 mg/mL. In data set [1], the Converted crystal form result was “Crystal form A”.
Turning to `CN1CCN(c2ccc(C(=O)Nc3n[nH]c4ccc(Cc5cc(F)cc(F)c5)cc34)c(NC3CCOCC3)c2)CC1` [Crystal form AZT-E of Reference Example 6] [entrectinib], the Converted crystal form entry in data set [1] was “Crystal form A”. Moreover, in data set [2], the “electron microscopy results of the crystal: length of larger crystals/particles” value is “more than about 1000 μm”; the “electron microscopy results of the crystal: shape and size uniformity” value was “Irregular bulk-shaped, non-uniform”. In data set [3], the Fluidity result is reported as “poor fluidity” and the Static electricity entry is “strong static electricity after crushing, and”. Further, in data set [3] (listed as crystal form AZT-E), the Fluidity entry is “poor fluidity” and the Static electricity entry is “relatively strong static electricity after being crushed”.
Turning to `CN1CCN(c2ccc(C(=O)Nc3n[nH]c4ccc(Cc5cc(F)cc(F)c5)cc34)c(NC3CCOCC3)c2)CC1` [Crystal form A of Example 2, N-[5-(3,5-difluorobenzyl)-1H-indazol-3-yl]-4-(4-methylpiperazin-1-yl)-2-[(tetrahydro-2H-pyran-4-yl)amino]benzamide], the “Purity (%)” value in data set [4] (0 day) turned out to be 99.92%; in data set [4] (setting [8]), 99.92%; in data set [4] (setting [9]), 99.91%; in data set [4] (setting [10]), 99.91%. Further, the “Chemical stability (in words)” value in data set [4] was “good chemical stability”. The Crystal form found entry in data set [5] (0 day), in data set [5] (setting [8]), in data set [5] (setting [9]) and in data set [5] (setting [10]) was “form A” throughout. Besides, the “Crystal form stability (in words)” value in data set [5] was “good crystal form stability”. Also, in data set [6], the “Solubility compared with crystal form 2 and crystal form 4” value was “better solubility”. The solubility (usually the concentration that dissolves in the medium under given conditions) at 20 min in data set [6] (95% ethanol, 25 °C, organic solvent or mixture, read-out: Solubility in 95% ethanol) was 28.4 mg/mL (≈ 50.7 mM); in data set [6] (aqueous solution with pH 1, 25 °C, pH 1, simulated gastric fluid, read-out: Solubility in aqueous solution with pH = 1), 22.6 mg/mL (≈ 40.3 mM). Also, the “Crystal conversion in acetone/water slurry (in words)” value in data set [1] (acetone/water system, room temperature, 10 h) is reported as “will not be subjected to crystal conversion”. The “electron microscopy results of the crystal: length of larger crystals/particles” value in data set [2] is approximately 20 μm. In addition, the “electron microscopy results of the crystal: shape and size uniformity” value in data set [2] was “Rod-shaped, relatively uniform size,”. Also, the Fluidity result in data set [3] and in data set [3] (listed as crystal form A) was “good fluidity” in each case.
